Patent publication US8337851B2, “Methods of monitoring the efficacy of anti-CD40 antibodies in treating a subject for a CD40-expressing cancer” (Novartis AG, priority 2005, dated 2012)
Entries after “also recorded” stand apart in the source; their conditions may differ.

Assays:
[1] = tested on: primary cancer cells from NHL patients; assay: ADCC against primary cancer cells; assay type: cell-based, human; conditions: in vitro
Source text: (§1) 4, 2003, Nov. 26, 2003, and Apr. 27, 2004, and assigned U.S. Patent Application Nos. 60/517,337, 60/525,579, and 60/565,710, respectively, and International Patent Application No. PCT/US2004/037152, also entitled “Antagonist, Anti-CD40 Monoclonal Antibodies and Methods for Their Use,” filed Nov. 4, 2004; the contents of each of which are herein incorporated by reference in their entirety.

primary B-CLL cells = assay: Western blot of cPARP, Mcl-1, Bcl-xl in primary B-CLL cells; assay type: cell-based, human; conditions: 10 μg/ml with rhsCD40L
Procedure: Whole cell lysates were prepared in RIPA lysis buffer (1% Nonidet P-40, 0.5% sodium deoxycholate, 0.1% Sodium dodecylsulfate in 1× phosphate buffered saline, pH 7.2). 10-20 μg of protein per sample were resolved on a 10% Tris-Glycine gel and transferred to nitrocellulose membranes, and membranes were probed using mAbs specific to human cPARP, Mcl-1, or Bcl-xl. The membranes were stripped and re-probed for β-actin and developed using ECL.

cell-surface CD40 = cell-surface CD40 (Homo sapiens, UniProt P25942); assay: Flow cytometric CD40-ligand binding blockade and displacement; conditions: flow cytometric assays / FACS
Source text: (§2) 2, 2000, and PCT International Application No. PCT/US01/30857, also titled “Human Anti-CD40 Antibodies,” filed Oct. 2, 2001, both of which are herein incorporated by reference in their entirety.
as §1

normal B cells = assay: CD40L-induced production of VEGF in normal B cells; assay type: cell-based, human
Source text: In another experiment, CD40L-induced production of VEGF in normal B cells and CLL cells obtained from patients with CLL is examined in a manner similar to that described above.

CLL patient samples = assay: p-p38 status in multiple B-CLL patient samples; assay type: cell-based, human; conditions: CLL patients with high or low basal p-p38; CD40L stimulation
Source text: Patients with low basal p-p38 activity have a higher induction of phosphorylation by CD40L stimulation than patients with a higher basal expression.

soluble CD40 = soluble CD40 (Homo sapiens, UniProt P25942); assay: ELISA-type binding to soluble CD40; conditions: ELISA-type assays
Source text: as §2

[2] = tested on: CD40-expressing target cells; assay: ADCC activity of anti-CD40 antibodies (Table 1); assay type: cell-based
[3] = tested on: cancer cells from NHL and CLL patients; assay: In vitro CD40 ligand-mediated proliferation of patient cancer cells; assay type: cell-based, human
Source text: as §1

KMS-12-BM tumor = assay: Human KMS-12-BM subcutaneous xenograft model; assay type: in vivo, SCID mice; conditions: 42 days post cell implantation
Procedure: Female SCID mice were treated with 3Gy irradiation one day prior to implantation of tumor cells. On the day of implantation, cells were prepared at a concentration of 5×10^7 cells/ml in 50% matrigel. Cells were implanted subcutaneously over the right flank at 5×10^6 cells/100 μl/mouse. […] Antibodies were administered intraperitoneally once a week for 4 weeks. Bortezomib was administered intravenously twice a week for two weeks.

normal human B cells = assay: Western blot of survival and signaling markers in normal human B cells; assay type: cell-based; conditions: 10 μg/ml, 24 hr, 2 μg/ml rhsCD40L, vs hIgG1
Source text: Cells were lysed and whole cell lysates resolved by SDS-PAGE and Western blotting using antibodies specific to human cPARP, Mcl-1, Bcl-xl, p-Akt, and p-p38 MAPK. All membranes were stripped and re-probed for either β-actin or AKT or p38 MAPK total protein, as appropriate.

ARH-77 cells = assay: ADCC, Calcein release with human NK cells, ARH-77; assay type: cell-based; conditions: NK:target 10 to 1, 4 hours, read-out: ED50 (percent specific lysis)
Procedure: (§3) Human MM cell lines, KMS-12-BM, IM-9, and ARH-77, were washed 3 times using R2 medium (Pheno red-free RPMI with 2% FBS) and re-suspended in R10 medium (Pheno red-free RPMI with 10% FBS) at the density of 1×10^6/mL. Cells were labeled by adding Calcein AM (final concentration […]) and incubating for 30 minutes at 37° C. in a humidified atmosphere with 5% CO2. Purified human NK cells and Calcein-labeled target cells were mixed in R10 medium at the ratio of 10 to 1 (5×10^4 NK cells and 5×10^3 target cells in […]) and added in U-bottom 96 well plate (Packard's Instrument, Meriden, Conn.). […] 1% NP-40 was added in 3 wells for the maximum cell lysis. Cells were incubated for 4 hours without disturbance at 37° C. in a humidified atmosphere with 5% CO2. The plate was then centrifuged at 300 rpm without brake for 5 minutes. […] supernatant was transferred into a new 96 well plate. The released Calcein in the supernatant was measured in arbitrary fluorescent unit (AFU) at 485 nm excitation and 535 nm emission using Tecan SpectraFluor Plus (Tecan U.S., Inc., Research Triangle, N.C.). The percent of specific lysis was calculated as: 100×(AFU test−AFU spontaneous release)/(AFU maximal release−AFU spontaneous release).
(§4) The ED50 was determined for each cell line by plotting the log of antibody concentration versus the percent specific lysis (see FIG. 16).

B-CLL cells = assay: Western blot of p-Akt, p-p38 MAPK, p-IKK α/β, p-ERK in B-CLL cells; assay type: cell-based, human
Procedure: To detect p38 MAPK, cells were cultured for 3 hr using the previously described conditions, with rhsCD40L being added in the last 20 min of incubation. Cells were processed as described above for data shown in FIG. 25. mAbs specific to human p-Akt and p-p38 MAPK were used to probe the resultant membranes, which were re-probed for AKT and p38 total protein, respectively.
Resultant membranes were probed using mAbs specific to human p-IKK α/β and p-ERK.

IM-9 cells = assay: ADCC, Calcein release with human NK cells, IM-9; assay type: cell-based; conditions: NK:target 10 to 1, 4 hours, read-out: ED50 (percent specific lysis)
Procedure: as §3, §4

[4] = 3 hr culture, rhsCD40L in the last 20 min

Chain of cell-surface CD40 (P25942 21-277): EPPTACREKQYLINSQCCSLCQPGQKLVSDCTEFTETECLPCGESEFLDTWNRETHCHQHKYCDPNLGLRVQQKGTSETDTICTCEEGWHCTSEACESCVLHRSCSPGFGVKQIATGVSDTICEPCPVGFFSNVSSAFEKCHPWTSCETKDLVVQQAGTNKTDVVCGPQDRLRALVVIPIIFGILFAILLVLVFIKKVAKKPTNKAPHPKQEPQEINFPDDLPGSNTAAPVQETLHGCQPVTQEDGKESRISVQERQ
Chain of soluble CD40 (P25942 21-193 limits assumed): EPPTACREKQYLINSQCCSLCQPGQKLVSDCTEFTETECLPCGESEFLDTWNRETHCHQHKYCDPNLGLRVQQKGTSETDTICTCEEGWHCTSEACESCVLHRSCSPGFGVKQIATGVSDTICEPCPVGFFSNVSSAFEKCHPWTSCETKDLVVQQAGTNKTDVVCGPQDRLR

Substance: CHIR-12.12: fully human anti-CD40 monoclonal antibody of the IgG1 isotype from hybridoma cell line 153.8E2.D10.D6.12.12 (ATCC PTA-5543)
- killing of primary cancer cells by ADCC [1]: kill primary cancer cells from NHL patients by ADCC
- cPARP levels and Mcl-1 and Bcl-xl expression (Western blot) (primary B-CLL cells): blocked the CD40L-mediated decrease of cPARP levels and CD40L-mediated increase of Mcl-1 and Bcl-xl expression
- displacement of pre-bound CD40-ligand (cell-surface CD40): displace the pre-bound CD40-ligand; also recorded: can compete off CD40-ligand pre-bound to cell surface CD40
- prevention of CD40-ligand binding to cell-surface CD40 (cell-surface CD40): prevent the binding of CD40-ligand to cell-surface CD40; also recorded: can prevent CD40-ligand binding
- CD40L-induced production of VEGF (normal B cells): inhibit CD40L-induced production of VEGF
- p-p38 levels (CLL patient samples): lowered p-p38 levels back to basal phosphorylation
- binding to soluble CD40 (soluble CD40): bind soluble CD40
- killing of CD40-expressing target cells by ADCC [2]: able to kill CD40-expressing target cells
- effect on CD40 ligand-mediated proliferation of cancer cells [3]: inhibiting in vitro CD40 ligand-mediated proliferation of cancer cells from NHL and CLL patients
- tumor volume reduction (KMS-12-BM tumor; 1 mg/kg i.p. once a week for 4 weeks, P>0.05): 32%
- tumor volume reduction (KMS-12-BM tumor; 10 mg/kg i.p. once a week for 4 weeks, P<0.05): 35%
- CD40L-mediated effects on cPARP, Mcl-1, Bcl-xl, p-Akt, p-p38 (normal human B cells): blocked these CD40L-mediated effects on normal B cells
- EC50 (ARH-77 cells): 0.0239 nM
- CD40L-induced phosphorylation of IKK α/β and ERK ½ (B-CLL cells; [4]): inhibited the CD40L-induced phosphorylation of IKK α/β and ERK ½
- rhsCD40L-enhanced phosphorylation of p38 MAPK (B-CLL cells; [4]): blocked this effect
- CD40L activation of the AKT pathway (p-Akt) (B-CLL cells; in a number of samples): blocked this effect
- EC50 (IM-9 cells): 0.0059 nM
